The values that follow come from patent US20050227337A1, “Method for producing ascorbic acid intermediates” (priority 1998, published 2005).

The subject of assay [1] is 2-keto-D-gluconate dehydrogenase. Conditions: reported by Shinagawa and Ameyama (1982); cited from earlier work.
Assay [2] deals with 2-keto-D-gluconic acid dehydrogenase. The experiment in a line: 2-keto-D-gluconic acid dehydrogenase activity in permeabilized cells with methanol (product formation, HPLC). Type of assay: biochemical, P. citrea. Conditions: permeabilized cells with 15% MeOH and gluconic acid. The procedure:
(§1) 400 ml of P. citrea cells having a mutation in the naturally occurring membrane bound GDH was grown to 80 OD (600 nm) in 10 g/L gluconate, and mixed with 16 ml of a mixture of 10% toluene and 90% acetone for 3 minutes at 22 C. The permeabilized cells were then centrifuged for 10 minutes at 9000 rpm, and the resulting cell pellet was washed with 400 ml of 50 mM tris, pH 7. The washings were repeated twice more to ensure removal of residual organic solvent.
(§2) Permeabilized cells were incubated with 15% MeOH and gluconic acid.

The subject of assay [3] is D-gluconic acid dehydrogenase. The experiment in a line: D-gluconic acid dehydrogenase activity in permeabilized cells with methanol (product formation, HPLC). Type of assay: biochemical, P. citrea. Conditions: permeabilized cells with 15% MeOH and gluconic acid. The procedure:
as §1, §2

The next assay addresses T1, GDH from T. acidophilum (Thermoplasma acidophilum, UniProt P13203).
T1 construct: purchased Sigma
T1 sequence (P13203 1-361): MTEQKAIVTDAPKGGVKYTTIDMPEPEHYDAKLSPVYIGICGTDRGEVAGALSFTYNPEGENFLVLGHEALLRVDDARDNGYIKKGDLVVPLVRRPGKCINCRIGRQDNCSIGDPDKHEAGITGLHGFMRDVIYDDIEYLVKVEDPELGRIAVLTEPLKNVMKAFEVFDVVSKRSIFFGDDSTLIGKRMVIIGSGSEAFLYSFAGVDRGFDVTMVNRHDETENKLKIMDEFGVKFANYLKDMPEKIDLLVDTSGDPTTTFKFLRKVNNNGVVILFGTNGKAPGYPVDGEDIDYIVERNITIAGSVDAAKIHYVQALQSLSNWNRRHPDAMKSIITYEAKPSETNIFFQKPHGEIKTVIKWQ
The experiment in a line: GDH activity in the presence of methanol. Conditions: incubated with 10% methanol; 50 mM Tris, pH 7. The class given is biochemical.

Assay [4] deals with reductase and glucose dehydrogenase (GDH). Kind of assay: NADPH/NADP+ ratio in cofactor recycling reaction (absorbance at 340 nm). Type of assay: biochemical. The following applies: final concentration 0.5 M NaCl; room temperature, pH 7. The procedure: Therefore, if the two cofactors are mixed together, the amount of NADPH present can be determined by the absorbance at 340 nm. If the amount of NADP+ originally added is also known, the ratio of the two cofactors can then be easily determined. This method can be used to measure how the addition of various components to a reaction, such as a cofactor recycling reaction, affects the reaction equilibrium.
A 1 ml reaction was set up in a cuvette at room temperature. The reaction consisted of buffer (50 mM bis-tris, pH 7), 5 mg glucose, 5 mg 2,5-DKG, 100 uM NADPH, 100 uM NADP+, reductase and glucose dehydrogenase (GDH). The enzymes were added last to initiate the reaction, and the cofactor levels were monitored at 340 nm. After equilibrium was reached (FIG. 7), an additional aliquot of GDH was added. Very quickly the equilibrium shifted to favor more NADPH being present. Addition of more GDH gave the same response.
Another 1 ml incubation was set up as above. After it reached equilibrium, 29 mg of NaCl was added to it to give a final concentration of 0.5 M NaCl.

For `O=C(O)CCC(=O)O` [succinate], the “effect on 2-keto-D-gluconate dehydrogenase” value in assay [1] is recorded as “inhibit”. With `CO` [methanol], the “activity of 2-keto-D-gluconic acid dehydrogenase” value in assay [2] was “not significantly affected”. Also, in assay [3], the “activity of D-gluconic acid dehydrogenase” value is listed as “not significantly affected”. Also, the GDH activity result at GDH from T. acidophilum is “small decrease in activity”. As for `[Cl-].[Na+]` [NaCl, sodium chloride], the “shift of NADPH/NADP+ equilibrium” value in assay [4] is given as “dramatically shifted the equilibrium to favor the presence of NADPH”.

In the case of `O=C(O)CC(O)(CC(=O)O)C(=O)O` [citrate], the “effect on 2-keto-D-gluconate dehydrogenase” value in assay [1] was “inhibit”.
